PMC4520450, “Procyanidins Negatively Affect the Activity of the Phosphatases of Regenerating Liver” (PLoS ONE, 2015)

What was measured:
TCPTP = biological target: T1, TCPTP (Homo sapiens, UniProt P17706); assay: DiFMUP assay for PTP1B, TCPTP, VHR; format: biochemical; settings: 12.5 μM, 30 min incubation, 20 μM DiFMUP, 50 nM enzyme
T1 construct: made in house
T1 sequence (P17706 1-415): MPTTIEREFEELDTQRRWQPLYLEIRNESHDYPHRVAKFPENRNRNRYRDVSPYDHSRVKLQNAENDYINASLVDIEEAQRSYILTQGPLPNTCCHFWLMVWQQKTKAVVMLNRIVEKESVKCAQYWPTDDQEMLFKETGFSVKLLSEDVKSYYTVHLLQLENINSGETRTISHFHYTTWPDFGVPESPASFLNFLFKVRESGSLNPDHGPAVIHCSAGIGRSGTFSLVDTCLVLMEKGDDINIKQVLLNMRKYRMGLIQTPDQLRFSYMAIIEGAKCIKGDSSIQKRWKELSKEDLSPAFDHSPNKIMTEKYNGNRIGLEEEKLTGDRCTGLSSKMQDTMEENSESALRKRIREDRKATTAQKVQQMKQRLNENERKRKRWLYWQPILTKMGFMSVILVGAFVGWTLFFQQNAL
Procedure: As an extension of our studies we included PTP1B, VHR and TCPTB as examples for phosphotyrosine specific phosphatases in our activity studies, because tea extracts were reported to inhibit PTP1B [43]. For comparison with PRL-3, these proteins were used in the same concentration (50 nM) as PRL-3 and DiFMUP was also used as a substrate in 20 μM concentration. The enzymes were incubated with three different concentrations of procyanidin C2 (9) for 30 min before the measurement.
Fig 3 Effect of procyanidin C2 (9) on the phosphatase activity of VHR, PTP1B and TCPTP using DiFMUP as a substrate. Proteins were incubated with compound 9 for 30 min., phosphatase activity measurements were performed using 20 μM DiFMUP. Phosphatase activity in the absence of compound 9 was set as 100%. Data represent means ± standard errors of the mean (n = 3).
DiFMUP assay for PTP1B, TCPTP, VHR: In a final reaction volume of 100 μL the PTPs (50 nM final concentration) were incubated with […] of procyanidin C2 (9) for 30 minutes at 25°C. The buffer conditions were pH 7.2, 4-/2-Hydroxyethyl)-1-piperazineethanesulfonic acid (HEPES) 25 mM, EDTA 2.5 mM, DTT 2.0 mM, NaCl 124.4 mM. After the incubation time 20 μL DiFMUP was added to reach a final concentration of 20 μM. On a Tecan safire2 (Tecan, Salzburg, Austria) plate reader dephosphorylation of the substrate to its fluorescent product was monitored by following the emission at […] for 10 minutes. All measurements were done in triplicates, and the experiments were repeated at least three times. The slopes of the initial phases were obtained by linear regression of the data points. The normalized reaction rates were plotted versus the log of the inhibitor concentrations and the IC50 values were obtained by fitting the curves using the one site competition model of GraphPad Prism (GraphPad Software, Version 5). Due to the high water solubility of 9 DMSO was not required and measurements were done in assay buffer only.

[1] = Cytotoxicity by flow cytometry with propidium iodide; format: cell-based; settings: human
Text: To study the effects of procyanidins on PRL-1 and PRL-3 in cells, the trimeric catechin (procyanidin C2, 9) was chosen as a representative example due to its strong inhibitor activity in vitro toward both PRL-s and its smaller size compared to the higher oligomers, which could influence cell permeability. HEK293 cells stably overexpressing PRL-1 and PRL-3 were chosen as model cell line. As a control cell line, HEK293 cells transfected with the empty vector were utilized (see the Experimental Procedures). To avoid false positive results due to cell death, first cell viability was studied in a concentration dependent manner by using flow cytometry. Therefore, cells were treated with different concentrations of compound 9 for 24 h, harvested, and then the ratio of living to dead cells was determined using propidium iodide (Fig 5).
Fig 5 Cytotoxicity of procyanidin C2 (9) in HEK293 cells. Cells were treated with 50, 150 or 300 μM of 9 in the growth medium for 24 h. Cells were harvested, resuspended in PBS buffer and incubated with propidium iodide (1 mg/mL) for 5 min on ice. 10,000 events were set for the number of living cells. The number of living cells was divided by the number of total cells counted and given as percentage of cell survival. Data represent means ± standard errors of the mean (n = 3).
Fig 7 A) Cytotoxicity of procyanidin B3 (8) in HEK293 cells. Cells were treated with 50, 75 or 100 μM of 8 in the growth medium for 24 h. Cells were harvested, resuspended in PBS buffer and incubated with propidium iodide (1 mg/mL) for 5 min on ice. 10,000 events were set for the number of living cells. The number of living cells was divided by the number of total cells counted and given as percentage of cell survival. Data represent means ± standard errors of the mean (n = 3). B) Wound healing abilities of PRL-1 or PRL-3 overexpressing or empty vector control HEK293 cell lines were analyzed in the presence of compound 8 or medium only. Cells were seeded at a concentration of 800,000 cells per insert and procyanidin B3 (8) was added at a concentration of 50 and 75 μM. Speed of migration is shown for combined data from different replicates, as mean ± SD (n = 40–77). Two-sided t-tests with Welsh correction were performed for p < 0.05. ns = not significant;***: < 0.001; **: < 0.01; *: < 0.05.
Flow cytometry was used to determine the ratio of living to dead cells compared to the control. HEK293 empty vector and PRL-3 overexpressing cells were seeded in a transparent 6-well plate with 400,000 cells/well in DMEM medium without Phenol red, supplemented with 10% FBS, 1% glutamine and 0.2% hygromycin and blasticidin. For induction of PRL-3 expression, 0.1% tetracycline was added. After 24 hours incubation at 37°C, procyanidins 8 or 9 dissolved in growth medium and growth medium as a control were added to the respective wells in the indicated final concentrations and incubated for another 24 hours. Then, the medium was removed and collected in Eppendorf tubes, centrifuged for 5 min at 500 rpm and the supernatant removed. Then 1 mL of PBS (10%) was added to each well and the cells detached with a cell scraper. […] After thorough mixing the cell suspension was injected into a LSR- Fortessa Bench Top Analyzer (Beckton Dickinson) and the number of living and dead cells counted. […] The number of living cells was divided by the number of total cells counted and given as percentage of cell survival.

PRL-3 = biological target: T2, PRL-3 (Homo sapiens, UniProt O75365); assay: DiFMUP phosphatase activity assay for PRLs; format: biochemical; settings: 20 μM DiFMUP
T2 construct: His-TEV (cleaved yes); made in house
T2 sequence (O75365 whole entry): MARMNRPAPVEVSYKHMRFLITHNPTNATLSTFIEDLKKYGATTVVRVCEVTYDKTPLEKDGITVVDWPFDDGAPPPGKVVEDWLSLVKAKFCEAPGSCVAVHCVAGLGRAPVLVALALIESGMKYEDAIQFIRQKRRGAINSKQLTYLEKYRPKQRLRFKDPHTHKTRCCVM

Oc1cc(O)c2c(c1)O[C@H](c1ccc(O)c(O)c1)[C@@H](O)[C@@H]2c1c(O)cc(O)c2c1O[C@H](c1ccc(O)c(O)c1)[C@@H](O)[C@@H]2c1c(O)cc(O)c2c1O[C@H](c1ccc(O)c(O)c1)[C@@H](O)C2 [Procyanidin C2 (9), Procyanidin C2]
TCPTP phosphatase activity compared to the control (TCPTP): 75–85% | viability at 24 h, 150 µM [1]: ~50% | viability at 24 h, 300 µM [1]: ~50% | PRL-3 phosphatase activity compared to the control (PRL-3; 12.5 μM, 30 min incubation, 50 nM enzyme): 75–85% | inhibition of PRL-3 activity (PRL-3; 25 μM and 50 μM): inhibited in a concentration dependent manner
